# Measured values as given in PubChem BioAssay (NCI).
# “And” between values parts separate entries of the source, which are not always exact repeats. Identical values can stand only once.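 Assay format: 96-well plates, 48-hour exposure. The concentration for 50% growth inhibition is given as GI50. The concentration for full growth arrest is given as TGI.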
# Legend:
# Assay in all cases: growth of human tumour cells (NCI), 48 h
# HCT-15 colon = test system: HCT-15 colon
# HOP-92 NSCLC = test system: HOP-92 NSCLC
# OVCAR-8 ovarian = test system: OVCAR-8 ovarian
# RPMI-8226 leukemia = test system: RPMI-8226 leukemia
# RXF 393 renal = test system: RXF 393 renal
# SK-MEL-2 melanoma = test system: SK-MEL-2 melanoma
# SN12C renal = test system: SN12C renal
# SW-620 colon = test system: SW-620 colon
# TK-10 renal = test system: TK-10 renal
# UACC-257 melanoma = test system: UACC-257 melanoma
Compound,GI50 (HCT-15 colon),TGI (HCT-15 colon),GI50 (HOP-92 NSCLC),TGI (HOP-92 NSCLC),GI50 (OVCAR-8 ovarian),TGI (OVCAR-8 ovarian),GI50 (RPMI-8226 leukemia) [nM],TGI (RPMI-8226 leukemia) [µM],GI50 (RXF 393 renal),TGI (RXF 393 renal),GI50 (SK-MEL-2 melanoma),TGI (SK-MEL-2 melanoma),GI50 (SN12C renal),TGI (SN12C renal) [µM],GI50 (SW-620 colon),TGI (SW-620 colon),GI50 (TK-10 renal),TGI (TK-10 renal),GI50 (UACC-257 melanoma),TGI (UACC-257 melanoma)
C/C(=N\O)c1cccc(Nc2cc(-c3ccccc3)nc3c(O)cccc23)c1,2770 nM,20.9 µM,1910 nM,13.7 µM,4240 nM,39 µM,2460,7.98,1620 nM,6.42 µM,8.34 µM,27.2 µM,3580 nM,17.2,751 nM,> 42.9 µM,8.44 µM,47.7 µM,6.28 µM,25.4 µM
O=C(/C=C/c1cccc(S(=O)(=O)Nc2ccccc2)c1)NO,1080 nM and 1290 nM,> 48.9 µM and 68.5 µM,270 nM and 74 nM,2.19 µM and 1.21 µM,309 nM and 34.1 nM,16.9 µM and 17 µM,248,–,342 nM and 101 nM,1.79 µM and 1.88 µM,2.34 µM and 5.73 µM,15.6 µM and > 71.2 µM,1680 nM and 244 nM,–,227 nM and 30.8 nM,9.27 µM and > 47.1 µM,0.215 µM and 0.024 µM,3.19 µM and 1.73 µM,0.553 µM and 0.25 µM,10.8 µM and > 100 µM
C=C(CN1CCN(c2ccccc2C(F)(F)F)CC1)c1ccc(C(=O)Nc2ccccc2N)cc1,4880 nM,> 100 µM,1850 nM,30.9 µM,3840 nM,> 100 µM,164,1.01,1670 nM,4.78 µM,10.3 µM,> 95.1 µM,6430 nM,23.9,3400 nM,> 65.9 µM,4.63 µM,> 67.7 µM,4.66 µM,> 62.6 µM
Brc1ccc(Nc2nc3ccccc3nc2Nc2ccc(Br)cc2)cc1,507 nM,3.21 µM,2190 nM,5.5 µM,773 nM,10.8 µM,756,5.87,1490 nM,6.38 µM,2.26 µM,5.48 µM,2160 nM,6.5,2780 nM,10.5 µM,1.81 µM,6.6 µM,2.01 µM,5.9 µM
O=C(O)c1ccc(C(=O)O)c(C(=O)O)c1.[NH-]C1CCCCC1[NH-].[Pt+2],2050 nM,33.7 µM,14800 nM,53.9 µM,2920 nM,60.8 µM,581,48.9,9320 nM,44.7 µM,14.3 µM,61.4 µM,3190 nM,66.8,430 nM,57.9 µM,25.6 µM,85.8 µM,15.4 µM,61.6 µM
CC(=O)OCC1OC([Se-])C(OC(C)=O)C(OC(C)=O)C1OC(C)=O.N#CCC[PH+](CCC#N)CCC#N.[Au+] (configuration not stated),3920 nM,23.4 µM,12100 nM,52.2 µM,12700 nM,> 93.5 µM,3090,14.4,3140 nM,> 100 µM,11.8 µM,48.4 µM,6330 nM,31.9,4750 nM,> 89 µM,14.2 µM,46.9 µM,5.93 µM,13.6 µM
NCCCNc1nc2ccc(Cl)cc2c2c(=O)c3cc(F)ccc3sc12,1710 nM,3.48 µM,1580 nM,6.51 µM,3240 nM,15.1 µM,2770,9.79,2950 nM,12.3 µM,12.4 µM,33.3 µM,2270 nM,6.08,1740 nM,3.32 µM,3.08 µM,11.1 µM,15.7 µM,35.3 µM
CCOC(=O)[C@@H](C)C[C@H](Cc1ccccc1)NC(=O)c1csc([C@@H](C[C@H](C(C)C)N(C)C(=O)[C@@H](NC(=O)[C@H]2C[C@H](O)CCN2C)C(C)C)OC(C)=O)n1,149 nM,> 16.7 µM,6.63 nM,> 4.46 µM,16.6 nM,> 16.7 µM,< 1.67,> 16.7,9.55 nM,–,0.00243 µM,> 16.7 µM,9.36 nM,> 16.7,4.17 nM,> 16.7 µM,0.426 µM,> 16.7 µM,> 16.7 µM,> 16.7 µM
O=C1/C(=C\c2ccccc2)CN(C(=O)c2ccccc2)C/C1=C\c1ccccc1,2020 nM,5.9 µM,3280 nM,21 µM,2960 nM,11.1 µM,238,0.747,1680 nM,3.21 µM,3.5 µM,8.96 µM,1900 nM,4.31,1470 nM,3.04 µM,2.83 µM,9.06 µM,2 µM,5.16 µM
CCC(C)CC(C)C(=O)c1c(O)ccn(O)c1=O (configuration not stated),460 nM,> 100 µM,686 nM,33.7 µM,626 nM,> 100 µM,901,36.8,2330 nM,> 100 µM,3.63 µM,48.6 µM,1380 nM,16.2,607 nM,> 100 µM,17.8 µM,> 100 µM,2.52 µM,8.38 µM
Cc1cc(C(O)(c2ccc(Nc3ccccc3)cc2)c2ccc(Nc3ccc(S(=O)(=O)O)cc3)cc2)ccc1N (configuration not stated),1040 nM,2.95 µM,1030 nM,2.54 µM,1080 nM,3.57 µM,571,2.99,989 nM,2.28 µM,1.55 µM,4.68 µM,1820 nM,9.12,818 nM,3.27 µM,1.7 µM,3.77 µM,1.35 µM,3.43 µM
O=C([O-])CCc1ccccc1.O=C([O-])CCc1ccccc1.O=C([O-])CCc1ccccc1.O=C([O-])CCc1ccccc1.[Mo+2].[Mo+2],> 100000 nM,> 100 µM,43400 nM,> 100 µM,> 100000 nM,> 100 µM,> 100000,> 100,> 100000 nM,> 100 µM,> 100 µM,> 100 µM,> 100000 nM,> 100,> 100000 nM,> 100 µM,> 100 µM,> 100 µM,> 100 µM,> 100 µM
